Results taken from PMC9266561, “1,3-Benzodioxole Derivatives Improve the Anti-Tumor Efficiency of Arsenicals” (International Journal of Molecular Sciences, 2022).
Where two headings read alike, the source gives them in different places.

Columns and labels:
[1] = test system: Molm-13; test: cells; assay type: cell-based; conditions: Homo sapiens
[2] = test system: NB4; test: cells; assay type: cell-based; conditions: Homo sapiens
[3] = test system: 4T1; test: cells; assay type: cell-based; conditions: Mus musculus
[4] = test system: HeLa; test: cells; assay type: cell-based, human; conditions: Homo sapiens, HeLa
[5] = test system: COS-7; test: cells; assay type: cell-based, African green monkey; conditions: Chlorocebus sabaeus
[6] = test system: PBMC; test: cells; assay type: cell-based, rat; conditions: Rattus norvegicus, PBMC
[7] = test system: cancer cells; test: MTT assay, cancer cell lines taken together; assay type: cell-based; conditions: even at a high dosage, Figure S2
Experimental: The bioactivity of all the synthetic compounds was evaluated by a MTT assay (Table 1, Tables S1 and S2) against two leukemia cell lines, Molm-13 and NB4; two solid tumor cell lines, HeLa (human cervix cell line) and 4T1 (breast cancer cell line); and two normal cell lines, COS-7 (African green monkey kidney cell line) and rat PBMC (peripheral blood mononuclear cell line).
Cells were cultured in 96-well plates overnight, followed by adding 80 μL of a related medium containing compounds of different concentrations and dissolved in DMSO for 24 h or 48 h. Then, 40 μL of MTT (2.5 mg/mL) was added and the cells were incubated for another 4 h. The cells were then dissolved in 100 μL of 10% SDS solution or DMSO to release and dissolve the purple MTT products, followed by absorbance detection (BioTek, Winooski, VT, USA).

[8] = MOLM-13, 24 h, read-out: IC50 Molm 24 h
[9] = MOLM-13, 48 h, read-out: IC50 Molm 48 h
[10] = NB-4, 24 h, read-out: IC50 NB4 24 h
[11] = NB-4, 48 h, read-out: IC50 NB4 48 h
[12] = 4T1, 24 h, read-out: IC50 4T1 24 h
[13] = 4T1, 48 h, read-out: IC50 4T1 48 h
[14] = COS-7, 24 h, read-out: IC50 COS-7 24 h
[15] = COS-7, 48 h, read-out: IC50 COS-7 48 h
[16] = MOLM-13, 24 h, read-out: IC50 Molm
[17] = MOLM-13, 48 h, read-out: IC50 Molm

SMILES | IC50 [1, 8] [nM] | IC50 [1, 9] [nM] | IC50 [2, 10] [nM] | IC50 [2, 11] [nM] | IC50 [3, 12] [nM] | IC50 [3, 13] [nM] | IC50 ([4]; 24 h, read-out: IC50 HeLa 24 h) [nM] | IC50 ([4]; 48 h, read-out: IC50 HeLa 48 h) [nM] | IC50 [5, 14] [nM] | IC50 [5, 15] [nM] | IC50 ([6]; 24 h, read-out: IC50 PBMC 24 h) [nM] | IC50 ([6]; 48 h, read-out: IC50 PBMC 48 h) [nM] | IC50 ([2]; NB-4, 24 h, read-out: IC50 NB4) [nM] | IC50 ([3]; 4T1, 24 h, read-out: IC50 4T1) [nM] | IC50 ([3]; 4T1, 48 h, read-out: IC50 4T1) [nM] | IC50 [1, 16] [nM] | IC50 [1, 17] [nM] | IC50 ([2]; NB-4, 48 h, read-out: IC50 NB4) [nM] | anti-proliferation activity to cancer cells [7]
COc1ccc(C(=O)Nc2ccc([As]3SCCCS3)cc2)cc1OC [DAZ2, N-(4-(1,3,2-dithiarsinan-2-yl)phenyl)-3,4-dimethoxybenzamide] | 900 | 750 | 1710 | 1140 | 1500 | 1200 | 2300 | 1060 | 7100 | 3300 | 6200 | 5700 |  |  |  |  |  |  | 
O=C(Nc1ccc([As]2SCCCS2)cc1)c1ccc2c(c1)OCO2 [PZ2, N-(4-(1,3,2-dithiarsinan-2-yl)phenyl)benzo[d][1,3]dioxole-5-carboxamide] | 1060 | 750 | 700 | 440 | 2600 | 3400 | 700 | 440 | 4100 | 1750 | 6400 | 5300 | 850 ± 100 | 2550 ± 220 | 3350 ± 420 |  |  |  | 
CCc1ccc(C(=O)Nc2ccc([As]3SCCCS3)cc2)cc1 [EZ2, N-(4-(1,3,2-dithiarsinan-2-yl)phenyl)-4-ethylbenzamide] | 1100 | 1020 | 410 | 300 | 1400 | 1400 | 1010 | 810 | 4200 | 2100 | 3700 | 2900 |  | 1400 ± 120 | 1400 ± 120 |  |  |  | 
Cc1ccc(C(=O)Nc2ccc([As]3SCCCS3)cc2)cc1 [MZ2, N-(4-(1,3,2-dithiarsinan-2-yl)phenyl)-4-methylbenzamide] | 1200 | 800 | 400 | 300 | 1200 | 910 | 610 | 400 | 3400 | 1210 | 3400 | 2700 |  |  | 400 ± 110 |  |  |  | 
COc1cc(C(=O)Nc2ccc([As]3SCCCS3)cc2)cc(OC)c1OC [TAZ2, N-(4-(1,3,2-dithiarsinan-2-yl)phenyl)-3,4,5-trimethoxybenzamide] | 1600 | 1500 | 1000 | 600 | 3500 | 2200 | 2000 | 1040 | 9100 | 5200 | 7300 | 6500 |  |  |  |  |  |  | 
CC(=O)Oc1ccc(C(=O)Nc2ccc([As]3SCCCS3)cc2)cc1 [AZ2, 4-((4-(1,3,2-dithiarsinan-2-yl)phenyl)carbamoyl)phenyl acetate] | 1100 | 1000 | 600 | 600 | 2000 | 1000 | 800 | 500 | 2200 | 2100 | 5200 | 4900 | 600 ± 50 |  |  | 1110 ± 100 | 1010 ± 20 | 600 ± 30 | 
O=C(Nc1ccccc1[As]1SCCCS1)c1ccc(F)cc1 [FZ5, N-(2-(1,3,2-dithiarsinan-2-yl)phenyl)-4-fluorobenzamide] | 500 | 500 | 150 | 150 | 700 | 600 | 350 | 150 | 1100 | 800 | 2400 | 1820 | 150 ± 100 |  |  | 500 ± 10 | 500 ± 20 | 150 ± 20 | 
COc1cc(C(=O)Nc2ccc([As]3SCCCS3)cc2)cc(OC)c1O [HDZ2, N-(4-(1,3,2-dithiarsinan-2-yl)phenyl)-4-hydroxy-3,5-dimethoxybenzamide] | 600 | 600 | 800 | 500 | 1000 | 1010 | 2000 | 1010 | 9100 | 3500 | 5800 | 4900 |  |  |  | 600 ± 120 | 600 ± 120 |  | 
COc1cc(C(=O)Nc2ccccc2[As]2SCCCS2)cc(OC)c1OC [TAZ5, N-(2-(1,3,2-dithiarsinan-2-yl)phenyl)-3,4,5-trimethoxybenzamide] | 710 | 700 | 200 | 150 | 700 | 700 | 800 | 500 | 2000 | 1800 | 2200 | 1540 |  | 700 ± 30 | 700 ± 30 |  |  |  | 
COc1ccc(C(=O)Nc2ccccc2[As]2SCCCS2)cc1OC [DAZ5, N-(2-(1,3,2-dithiarsinan-2-yl)phenyl)-3,4-dimethoxybenzamide] | 450 | 320 | 800 | 510 | 600 | 500 | 810 | 550 | 1610 | 1270 | 4100 | 3500 |  |  |  |  |  |  | 
O=C(O)c1ccc2c(c1)OCO2 [1,3-benzodioxole derivative, piperonylic acid] |  |  |  |  |  |  |  |  |  |  |  |  |  |  |  |  |  |  | no anti-proliferation activity
O=C(Nc1ccc([As]2SCCCS2)cc1)c1ccc(F)cc1 [FZ2, N-(4-(1,3,2-dithiarsinan-2-yl)phenyl)-4-fluorobenzamide] | 1200 | 1000 | 400 | 300 | 2300 | 2200 | 1200 | 400 | 3500 | 2200 | 5500 | 4700 |  |  |  |  |  |  | 
O=C(Nc1ccc([As]2SCCCS2)cc1)c1ccc2c(c1)OC(F)(F)O2 [PFZ2, N-(4-(1,3,2-dithiarsinan-2-yl)phenyl)-2,2-difluorobenzo[d][1,3]dioxole-5-carboxamide] | 800 | 700 | 500 | 300 | 1000 | 800 | 500 | 150 | 6000 | 3500 | 6300 | 5700 |  |  |  |  |  |  | 
O=C(Nc1ccccc1[As]1SCCCS1)c1ccc2c(c1)OCO2 [PZ5, N-(2-(1,3,2-dithiarsinan-2-yl)phenyl)benzo[d][1,3]dioxole-5-carboxamide] | 270 | 240 | 260 | 140 | 400 | 830 | 260 | 140 | 1010 | 820 | 5000 | 4500 | 300 ± 30 |  |  |  |  | 200 ± 20 | 
